The values that follow are results of earlier work, collected in US8192775B2, “Crystallization of polyol compositions, crystalline polyol composition product and use thereof” (Danisco Sweeteners Oy, priority 2002, dated 2012).

Each structure is given as a SMILES string.

For the data set the following is noted: water at 20° C.

On to `OC[C@@H](O)[C@@H](O[C@H]1O[C@H](CO)[C@@H](O)[C@H](O)[C@H]1O)[C@H](O)[C@@H](O)CO` [Maltitol], for which the solubility in water was 62 % (w/w).
As to `OC[C@@H](O)[C@H](O)[C@@H](O)CO` [Xylitol], the solubility in water is listed as 63 (w/w).
